Patent US12343355B2, “Methods for decreasing the incidence of necrotizing enterocolitis in infants, toddlers, or children using human milk oligosaccharides” (ABBOTT LABORATORIES, priority 2010, dated 2025)

Key:
Caco-2 cells [1] = assay: Alkaline phosphatase activity in Caco-2 cells (cell differentiation); conditions: 72 hours, LNnT or 2′FL 20-2000 mg/L, 6′SL 40-4000 mg/mL
[2] = tested on: diluted feces of infants (fecal inoculum); assay: In vitro fermentation model simulating large bowel fermentation, infant fecal inoculum (pH, SCFA, fermentation rate); format: cell-based; conditions: for pH change from baseline: at 3, 6, and 12 h after inoculation, compared among substrates
Caco-2 cells [3] = assay: Sucrase activity in Caco-2 cells; format: cell-based, human; conditions: 72 hours, various levels
B. breve ATCC 15700 = assay: Bacterial growth assay (OD600); format: cell-based, Bifidobacterium breve; conditions: carbohydrate 1% in sMRS+cysteine
Method: Subsequently, the cultures are passed twice on a semi-synthetic MRS medium ([…] which is supplemented with 1% (w/v) filter-sterilized glucose as the sole carbohydrate source. […] [table] After the 2nd pass in sMRS+glucose+cysteine, the cultures are washed once with 10 mL of sterile sMRS+cysteine (no carbohydrate), resuspended in 10 ml of sterile sMRS+ cysteine (no carbohydrate) and then used as a 1% inoculum. […] Cell growth is performed in 250 uL of sMRS+cysteine covered with 50 uL of mineral oil in a Bioscreen 100-well Honeycomb plate. Cell growth is monitored by measuring optical density at 600 nm (OD600) using a Bioscreen C Automated Microbiology Growth Curve Analysis System. The plate reader is operated in discontinuous mode, with absorbance readings performed in 30-minute intervals, and preceded by 30-second shaking intervals at maximum speed. Controls consist of inoculated medium lacking carbohydrate. […] All three plates include a positive control (glucose) and negative control (no carbohydrate). […] Maximum OD is determined by inspection of the corrected growth data. OD is determined by subtracting the initial corrected OD (time point 0) from the maximum corrected OD. Samples are grown in biologically independent triplicates and the resulting growth kinetic data are expressed as the mean of these replicates. […]

Caco-2 cells [4] = assay: Transepithelial resistance of Caco-2 cells (Ussing chambers); format: cell-based, human; conditions: more mature Caco-2 cells
From the text: FIGS. 20-22 illustrate the effect of LNnT, 2′FL, and 6′SL on cell resistance (transepithelial resistance), which is a marker for epithelial barrier function, wherein a higher resistance is associated with a higher barrier function. Epithelial cell resistance or barrier function is a measure of differentiated epithelial cell function. Specifically, as the cells mature, tighter junctions between the cells are formed resulting in a stronger epithelial cell barrier. This barrier prevents the movement of large molecules, bacteria, or viruses from one side of the barrier to the other, which could improve resistance to infection, sepsis, and NEC. […] Transepithelial resistance was measured using Transwell Snapwell inserts containing the desired cell culture and were transferred to modified Ussing chambers and bathed in modified Kreb's solution at 37 C with 95% oxygen and 5% carbon dioxide. Transepithelial resistance was measured as the passive transport of ions across the monolayers.

B. infantis M-63 = assay: Bacterial growth assay (OD600); format: cell-based, Bifidobacterium infantis; conditions: carbohydrate 1% in sMRS+cysteine
Method: (§1) Subsequently, the cultures are passed twice on a semi-synthetic MRS medium ([…] which is supplemented with 1% (w/v) filter-sterilized glucose as the sole carbohydrate source. […] [table] After the 2nd pass in sMRS+glucose+cysteine, the cultures are washed once with 10 mL of sterile sMRS+cysteine (no carbohydrate), resuspended in 10 ml of sterile sMRS+ cysteine (no carbohydrate) and then used as a 1% inoculum. […] Cell growth is performed in 250 uL of sMRS+cysteine covered with 50 uL of mineral oil in a Bioscreen 100-well Honeycomb plate. Cell growth is monitored by measuring optical density at 600 nm (OD600) using a Bioscreen C Automated Microbiology Growth Curve Analysis System. The plate reader is operated in discontinuous mode, with absorbance readings performed in 30-minute intervals, and preceded by 30-second shaking intervals at maximum speed. Controls consist of inoculated medium lacking carbohydrate. […] All three plates include a positive control (glucose) and negative control (no carbohydrate). The OD600 data for each carbohydrate is corrected by subtracting the OD600 of the basal media (sMRS)+cysteine from the sample plate for each probiotic. Maximum OD is determined by inspection of the corrected growth data. OD is determined by subtracting the initial corrected OD (time point 0) from the maximum corrected OD. Samples are grown in biologically independent triplicates and the resulting growth kinetic data are expressed as the mean of these replicates. For the growth curve plots, OD600 vs. time is first plotted for the bacteria grown on medium lacking carbohydrate (sMRS). For all other carbohydrates, the OD600 data is corrected by subtracting the OD600 of sMRS.

B. infantis ATCC 15697 = assay: Bacterial growth assay (OD600); format: cell-based, Bifidobacterium infantis; conditions: carbohydrate 1% in sMRS+cysteine
Method: as §1

HT-29 cells = assay: Alkaline phosphatase activity in HT-29 cells (cell differentiation); conditions: 72 hours
[5] = tested on: Bifidobacterium spp. (12 strains); assay: Bacterial growth assay (OD600), all bifidobacteria strains tested; format: cell-based; conditions: carbohydrate 1% in sMRS+cysteine
Method: as §1

enteric nerve cells = assay: Peristalsis model using luminally perfused mouse colon
Method: In this Example, the effect of 2′-fucosyllactose (2′FL) or 3′-fucosyllactose (3′FL) on stimulating enteric nerve cells in the gastrointestinal tract of rodents is analyzed.
Specifically, a peristalsis model using luminally perfused mouse colon is used to test the stimulation effect of 2′FL or 3′FL on enteric nerve cells. Colon muscle is perfused with 2′FL or 3′FL, at concentrations of 1 mg/mL, 0.5 mg/mL, and 0.1 mg/mL, for 15 minutes. The frequency and amplitude of contractions of the muscle is analyzed.

[6] = LNnT 20-2000 mg/L, 6′SL 40-4000 mg/mL
[7] = colon muscle perfused at 1, 0.5 and 0.1 mg/mL for 15 minutes

Row | SMILES | alkaline phosphatase activity (Caco-2 cells [1]) | fermentation rate [2] | sucrase activity per milligram of protein (Caco-2 cells [3]) | growth / ability to ferment (OD600) (B. infantis M-63) | growth / ability to ferment (OD600) (B. infantis ATCC 15697) | growth / ability to ferment (OD600) [5] | further results
1 | CC(=O)N[C@H]1[C@H](O[C@H]2[C@@H](O)[C@@H](CO)O[C@@H](O[C@H]3[C@H](O)[C@@H](O)C(O)O[C@@H]3CO)[C@@H]2O)O[C@H](CO)[C@@H](O[C@@H]2O[C@H](CO)[C@H](O)[C@H](O)[C@H]2O)[C@@H]1O (mixture of isomers) [LNnT, Lacto-N-neotetraose] | trend toward an increase | about 4,488 i·tg/g of dry matter/hour | no apparent effect | grow well | grow well | – | pH change from baseline [2]: greatest; growth / ability to ferment (OD600) (B. breve ATCC 15700): grow well; cell resistance (transepithelial resistance) (Caco-2 cells [4]): positive effect on cell resistance; alkaline phosphatase activity per milligram of protein (HT-29 cells; [6]): trend toward an increase
2 | C[C@@H]1O[C@@H](O[C@H]2[C@H](O[C@H]3[C@H](O)[C@@H](O)C(O)O[C@@H]3CO)O[C@H](CO)[C@H](O)[C@@H]2O)[C@@H](O)[C@H](O)[C@@H]1O (stereo partly drawn) [2′FL, 2′-a-L-Fucopyranosyl-D-Lactose] | trend toward increased alkaline phosphatase activity | about 4,872 i·tg/g of dry matter/hour | trend toward sucrase activity | able to ferment | able to ferment | Only B. infantis ATCC 15697 and B. infantis M-63 are able to ferment | pH change from baseline [2]: greatest; amplitude of contraction (enteric nerve cells; [7]): reduced consistently and in a dose response fashion; frequency of contraction (enteric nerve cells; [7]): reduced consistently and in a dose response fashion; stimulation of nerve cells (enteric nerve cells; without involving gut microbiota and/or their metabolites): direct stimulation of nerve cells; alkaline phosphatase activity per milligram of protein (HT-29 cells; at the high dose (2000 mg/L)): significant increase in alkaline phosphatase activity
3 | CC(=O)N[C@H]1[C@H]([C@H](O)[C@H](O)CO)O[C@@](O[C@H]2[C@@H](O)[C@@H](CO)O[C@@H](O[C@H]3[C@H](O)[C@@H](O)C(O)O[C@@H]3CO)[C@@H]2O)(C(=O)O)C[C@@H]1O (some centres unmarked) [3′SL, 3′-sialyllactose] | – | – | – | able to ferment | able to ferment | Only B. infantis ATCC 15697 and B. infantis M-63 are able to ferment | –
4 | CC(=O)N[C@H]1C([C@H](O)[C@H](O)CO)O[C@@](OCC2O[C@@H](O[C@@H]3C(CO)OC(O)C(O)[C@H]3O)C(O)[C@@H](O)[C@H]2O)(C(=O)[O-])C[C@H]1O.[Na+] (some centres unmarked) [6′SL, a-(2-6′)-N-Acetylneuraminyl-lactose sodium salt] | no apparent effect | about 1,809 i·tg/g of dry matter/hour | no apparent effect | able to ferment | able to ferment | Only B. infantis ATCC 15697 and B. infantis M-63 are able to ferment | total SCFA production ([2]; 12 h of fermentation): greater (P<0.05) for the 6′SL and GOS substrates compared to 2′FL; total SCFA production ([2]; after 3 and 6 h of fermentation): lower (P<0.05) with 6′SL compared to GOS; alkaline phosphatase activity per milligram of protein (HT-29 cells; [6]): no apparent effect
5 | C[C@H](O)[C@@H](O)[C@@H](O)[C@H](O)C=O [L-fucose, L-(−) Fucose, reference compound] | – | – | – | not able to ferment | not able to ferment | None of the bifidobacteria are able to ferment | –
6 | CC(=O)N[C@H]1C(O)O[C@H](CO)[C@@H](O)[C@@H]1O (stereo partly drawn) [NAG, N-acetyl-D-glucosamine, reference compound] | – | – | – | – | – | Only B. breve ATCC 15700 is able to ferment | growth / ability to ferment (OD600) (B. breve ATCC 15700): able to ferment
7 | O=C(CO)[C@@H](O)[C@H](O)[C@H](O)CO [fructose, D-Fructose] | – | – | – | – | – | majority of bifidobacteria is able to ferment | –
8 | CC(=O)N[C@H]1[C@H]([C@H](O)[C@H](O)CO)OC(O)(C(=O)O)C[C@@H]1O (some centres unmarked) [sialic acid, N-acetylneuraminic acid, reference compound] | – | – | – | not able to ferment | not able to ferment | None of the bifidobacteria are able to ferment | –
